# Experimental data from EP0095833A2 (priority 1982, dated 1983).
# Read-outs that look alike come from different tables or passages of the source.
# Experiments:
# Reovirus III = format: cell-based
# VSV [1] = system: VSV
# VSV [2] = format: cell-based
# VSV [3] = format: cell-based; remark: listed apart in the source
# Polio virus = format: cell-based
# Vaccinia virus = format: cell-based
# VSV [4] = format: cell-based; details: HeLa cells, Figure 2
# VSV [5] = format: cell-based; details: 20 mM
# VSV [6] = format: cell-based; details: for Titer obtained (PFU/ml): pretreated for 2 hours, one-step growth (18 hours)
# Sindbis virus = details: BHK-21 cells; 0.1 mM chloroquine or 10 µg of cytochalasin B for thirty minutes before infection; Sindbis virus 5,000 PFU; 30 or 60 minutes at room temperature; cited from earlier work
# [7] = system: vesicular stomatitis virus; details: cited from earlier work
# [8] = 20 mM NH4Cl from the second hour before infection to the eighteenth hour after, Figure 7 panel A
# [9] = 20 mM NH4Cl from the second hour before inoculation to the seventh hour after, Figure 5 panel A
# [10] = 20 mM, added from 2 hours before inoculation
smiles,measurement,setting,value
"Cl.N [NH4Cl, ammonium chloride]",development of Reovirus,Reovirus III,completely inhibits
same,"development of Reovirus III, compared with Table I",Reovirus III; 20 mM,Identical results
same,virucidal effect against VSV,"VSV [1]; 20 mM NH4Cl in PBS, incubated at 37°C, titrated at various times",no virucidal effect
same,infection (viral m RNAs and 42S mature RNA in cytoplasmic extracts),"VSV [2]; 20 mM NH4Cl from immediately after inoculation to the eighteenth hour after, Figure 7 panel B",slight reduction
same,42S viral RNA in cytoplasmic extracts,VSV [2]; [8],do not contain
same,viral m RNAs in cytoplasmic extracts,VSV [2]; [8],do not contain
same,amount of 42S mature viral RNA in cytoplasmic extracts,"VSV [2]; 20 mM NH4Cl from the second hour before infection to the sixth hour after, 18 hours after infection, Figure 6 panel B",lower than in untreated cells
same,"viral m RNAs (31S, 17S, 14.5S, 12S) in cytoplasmic extracts","VSV [2]; 20 mM NH4Cl from the second hour before infection to the sixth hour after, 18 hours after infection, versus untreated, Figure 6 panel B",more
same,complete virus (625S) in cytoplasmic extract,VSV [2]; [9],large amount
same,viral cores (120s) in cytoplasmic extract,VSV [2]; [9],negligible amount
same,viral cores and virions in supernatant,"VSV [3]; treated from the second hour before inoculation to the eighteenth hour after, Figure 3 panel B",neither viral cores nor virions
same,virions in supernatant,"VSV [3]; treated from the second hour before to the sixth hour after inoculation, 18 hours, versus untreated, Figure 3 panel A",lower amount
same,viral cores in supernatant,"VSV [3]; treated immediately after inoculation, 18 hours, versus untreated, Figure 3 panel B",lower level
same,viral development of Polio virus,Polio virus; [10],No action
same,Virions produced in infected 20mM NH4Cl* treated cells,"Polio virus; BGM cells, Polio virus, 20 mM NH4Cl from 2 hours before inoculation, end of one step growth",4.15 x 10^8PFU/ml
same,viral development of Vaccinia,Vaccinia virus; [10],No action
same,Virions produced in infected 20mM NH4Cl* treated cells,"Vaccinia virus; L cells, Vaccinia virus, 20 mM NH4Cl from 2 hours before inoculation, end of one step growth",3.5 x 10^6PFU/ml
same,lag period before rather normal viral RNA synthesis,"VSV [4]; 20 mM NH4Cl from 2 hours before inoculation, withdrawal at the sixth hour after inoculation",6 h
same,viral RNA synthesis,VSV [4]; 20 mM NH4Cl from 2 hours before to 18 hours after inoculation,seriously reduced
same,viral RNA synthesis,"VSV [4]; 20 mM NH4Cl only added after inoculation, until 18 hours",strongly reduced
same,development of VSV,VSV [5]; added from 2 hours before inoculation,completely inhibits
same,"development of VSV, compared with Table I","VSV [5]; in L, BHK, and BGM cells",Identical results
Cc1cc2nc3ccc(N(C)C)cc3nc2cc1N.Cl [Neutral Red],virucidal effect,"VSV [1]; procedure of Example III, at these concentrations (70 µM and 100 µM)",no virucidal effect
same,Titer obtained (PFU/ml),VSV [6]; 70 µM Neutral Red,9.0 x 10^7 PFU/ml
same,growth of VSV,VSV [6]; 100 µM (29 µg/ml),completely inhibits
same,Titer obtained (PFU/ml),VSV [6]; 100 µM Neutral Red,0 PFU/ml
CCN(CC)CCCC(C)Nc1ccnc2cc(Cl)ccc12 (centres unmarked) [chloroquine],internalization by endocytosis of the virus,Sindbis virus,either enhanced or took place normally
C=C1[C@@H](C)[C@H]2[C@H](Cc3ccccc3)NC(=O)[C@]23OC(=O)/C=C/[C@H](O)CCC[C@@H](C)C/C=C/[C@H]3[C@@H]1O [cytochalasin B],internalization by endocytosis of the virus,Sindbis virus,blocked
same,yields of VSV,[7],the same as untreated (control) cells
